Data: publication PMC3681751, “Identification of a Novel Antimicrobial Peptide from Human Hepatitis B Virus Core Protein Arginine-Rich Domain (ARD)” (PLoS Pathogens, 2013)
Like-named read-outs stand apart in the source and are kept apart here. Non-standard residues stand in square brackets, D forms with d. Residues, ends and D or L forms follow the SMILES beside them. No end group written: not given here. pS = N[C@@H](COP(=O)(O)O)C(=O)O

Assays:
[1] = tested on: K. pneumonia (ATCC 13884); type: cell-based, Klebsiella pneumoniae
[2] = tested on: tested bacteria and fungi; type: cell-based; conditions: summary over the tested bacteria of Table 1
Description: (§1) The antimicrobial activities of HBc ARD peptides were tested using a number of bacterial strains from ATCC, including Pseudomonas aeruginosa Migula strain (ATCC 27853, ampicillin-resistant), Pseudomonas aeruginosa Migula strain (ATCC 9027, ampicillin-resistant), Klebsiella pneumoniae strain (ATCC 17593), Escherichia coli strain (ATCC 25922), Staphylococcus aureus subsp. strain (ATCC 25923, methicillin-resistant), Staphylococcus aureus subsp. strain (ATCC 29213, methicillin-resistant), Staphylococcus aureus subsp. strain (ATCC 19636, methicillinresistant), and Candida albicans strain (ATCC 10231).
(§2) All peptides were purchased from Yao-Hong Biotechnology Inc. (Taipei, Taiwan). Vendors provided data of peptide characterizations, including HPLC and Mass (data not shown). Antimicrobial activity was determined as described with some modifications as detailed below. Bacteria were grown overnight in Mueller–Hinton broth (Difco) at 37°C, and during the mid-logarithmic phase, bacteria were diluted to 10^6 CFU (colony formation unit)/ml in phosphate buffer (10 mM sodium phosphate and 50 mM sodium chloride, pH 7.2). Peptides were serially diluted in the same buffer. Fifty microliter (µl) of bacteria was mixed with fifty µl of peptides at varying concentrations followed by incubation at 37°C for 3 hours without shaking. At the end of incubation, bacteria were placed on Mueller-Hinton broth agar plates, and allowed growth at 37°C overnight for measurement of minimal bactericidal concentration (MBC). […] All peptides were tested in triplicate.

[3] = tested on: S. aureus (ATCC 19636); type: cell-based, Staphylococcus aureus
Description: as §1, §2

[4] = tested on: S. aureus (ATCC 29213); type: cell-based, Staphylococcus aureus
Description: as §1, §2

[5] = tested on: S. aureus (ATCC 25923); type: cell-based, Staphylococcus aureus
Description: as §1, §2

[6] = tested on: P. aeruginosa (ATCC 27853); type: cell-based, Pseudomonas aeruginosa
Description: as §1, §2

[7] = tested on: P. aeruginosa (ATCC 9027); type: cell-based, Pseudomonas aeruginosa
Description: as §1, §2

[8] = tested on: E. coli (ATCC 25922); type: cell-based, Escherichia coli
Description: as §1, §2

[9] = 3 h at 37°C in phosphate buffer pH 7.2, triplicate
[10] = methicillin-resistant strain, 3 h at 37°C in phosphate buffer pH 7.2, triplicate
[11] = ampicillin-resistant strain, 3 h at 37°C in phosphate buffer pH 7.2, triplicate
[12] = 3 h at 37°C in 10 mM sodium phosphate, 50 mM NaCl, pH 7.2, 10^6 CFU/ml, triplicate, ND = not detectable
[13] = methicillin-resistant strain, 3 h at 37°C in 10 mM sodium phosphate, 50 mM NaCl, pH 7.2, 10^6 CFU/ml, triplicate, ND = not detectable
[14] = ampicillin-resistant strain, 3 h at 37°C in 10 mM sodium phosphate, 50 mM NaCl, pH 7.2, 10^6 CFU/ml, triplicate, ND = not detectable

Row | Molecule | Antimicrobial activity, MBC [1, 9] [µg/mL] | Antimicrobial activity, MBC ([1]; ATCC 13884, 3 h, pH 7.2) [µM] | MBC for bacteria [2] | Antimicrobial activity, MBC ([3]; ATCC 19636, 3 h, pH 7.2) [µM] | Antimicrobial activity, MBC [3, 10] [µg/mL] | Antimicrobial activity, MBC ([4]; ATCC 29213, 3 h, pH 7.2) [µM] | Antimicrobial activity, MBC [4, 10] [µg/mL] | Antimicrobial activity, MBC ([5]; ATCC 25923, 3 h, pH 7.2) [µM] | Antimicrobial activity, MBC [5, 10] [µg/mL] | Antimicrobial activity, MBC ([6]; ATCC 27853, 3 h, pH 7.2) [µM] | Antimicrobial activity, MBC [6, 11] [µg/mL] | Antimicrobial activity, MBC [7, 11] [µg/mL] | Antimicrobial activity, MBC [8, 9] [µg/mL] | Antimicrobial activity, MBC [1, 12] [µM] | Antimicrobial activity, MBC [3, 13] [µM] | Antimicrobial activity, MBC [4, 13] [µM] | Antimicrobial activity, MBC [5, 13] [µM] | Antimicrobial activity, MBC [6, 14] [µM] | Antimicrobial activity, MBC [7, 14] [µM] | Antimicrobial activity, MBC [8, 12] [µM] | other results
1 | CC(C)[C@H](NC(=O)[C@@H](NC(=O)[C@@H](N)[C@@H](C)O)C(C)C)C(=O)N[C@@H](CCCNC(=N)N)C(=O)N[C@@H](CCCNC(=N)N)C(=O)N[C@@H](CCCNC(=N)N)C(=O)NCC(=O)N[C@@H](CCCNC(=N)N)C(=O)N[C@@H](CO)C(=O)N1CCC[C@H]1C(=O)N[C@@H](CCCNC(=N)N)C(=O)N[C@@H](CCCNC(=N)N)C(=O)N[C@@H](CCCNC(=N)N)C(=O)N[C@H](C(=O)N1CCC[C@H]1C(=O)N[C@@H](CO)C(=O)N1CCC[C@H]1C(=O)N[C@@H](CCCNC(=N)N)C(=O)N[C@@H](C)C(=O)N[C@@H](C)C(=O)N[C@@H](CCCNC(=N)N)C(=O)N[C@@H](CO)C(=O)N[C@@H](CCC(N)=O)C(=O)N[C@@H](CO)C(=O)N1CCC[C@H]1C(=O)N[C@@H](CCCNC(=N)N)C(=O)N[C@@H](C)C(=O)N[C@@H](C)C(=O)N[C@@H](CCCNC(=N)N)C(=O)N[C@@H](CO)C(=O)N[C@@H](CCC(N)=O)C(=O)N[C@@H](CO)C(=O)N[C@@H](CCCNC(=N)N)C(=O)N[C@@H](CCC(=O)O)C(=O)N[C@@H](CO)C(=O)N[C@@H](CCC(N)=O)C(=O)N[C@@H](CS)C(=O)O)[C@@H](C)O [HBc147-183(34AA)] (H-TVVRRRGRSPRRRTPSPRAARSQSPRAARSQSRESQC-OH; N-terminus and C-terminus assumed) | 135.94 | 32 | significantly increased | > 32 | > 135.94 | > 32 | > 135.94 | > 32 | > 135.94 | 32 | 135.94 | 135.94 | > 135.94 |  |  |  |  |  |  |  | Antimicrobial activity, MBC ([7]; ATCC 9027, 3 h, pH 7.2): 32 µM; Antimicrobial activity, MBC ([8]; ATCC 25922, 3 h, pH 7.2): > 32 µM
2 | CC(C)[C@H](NC(=O)[C@@H](NC(=O)[C@@H](N)[C@@H](C)O)C(C)C)C(=O)N[C@@H](CCCNC(=N)N)C(=O)N[C@@H](CCCNC(=N)N)C(=O)N[C@@H](CCCNC(=N)N)C(=O)NCC(=O)N[C@@H](CCCNC(=N)N)C(=O)N[C@@H](COP(=O)(O)O)C(=O)N1CCC[C@H]1C(=O)N[C@@H](CCCNC(=N)N)C(=O)N[C@@H](CCCNC(=N)N)C(=O)N[C@@H](CCCNC(=N)N)C(=O)N[C@H](C(=O)N1CCC[C@H]1C(=O)N[C@@H](COP(=O)(O)O)C(=O)N1CCC[C@H]1C(=O)N[C@@H](CCCNC(=N)N)C(=O)N[C@@H](CCCNC(=N)N)C(=O)N[C@@H](CCCNC(=N)N)C(=O)N[C@@H](CCCNC(=N)N)C(=O)N[C@@H](CO)C(=O)N[C@@H](CCC(N)=O)C(=O)N[C@@H](COP(=O)(O)O)C(=O)N1CCC[C@H]1C(=O)N[C@@H](CCCNC(=N)N)C(=O)N[C@@H](CCCNC(=N)N)C(=O)N[C@@H](CCCNC(=N)N)C(=O)N[C@@H](CCCNC(=N)N)C(=O)N[C@@H](CO)C(=O)N[C@@H](CCC(N)=O)C(=O)N[C@@H](CO)C(=O)N[C@@H](CCCNC(=N)N)C(=O)N[C@@H](CCC(=O)O)C(=O)N[C@@H](CO)C(=O)N[C@@H](CCC(N)=O)C(=O)N[C@@H](CS)C(=O)O)[C@@H](C)O [HBc155p162p170p] | > 154.5 | > 32 | > 32 µM | > 32 | > 154.5 | > 32 | > 154.5 | > 32 | > 154.5 | > 32 | > 154.5 | > 154.5 | > 154.5 |  |  |  |  |  |  |  | Antimicrobial activity, MBC ([7]; ATCC 9027, 3 h, pH 7.2): > 32 µM; Antimicrobial activity, MBC ([8]; ATCC 25922, 3 h, pH 7.2): > 32 µM
3 | HBc155p: HBc147-183 phosphorylated on S155 (TVVRRRGRSPRRRTPSPRRRRSQSPRRRRSQSRESQC; phosphorylated S155; UniProt P03147 147-183, looked up, fragment) | 4.67 |  | 8 µM |  | 37.4 |  | 37.4 |  | 37.4 |  | 37.4 | 37.4 | 37.4 | 1 | 8 | 8 | 8 | 8 | 8 | 8 | 
4 | HBc170p: HBc147-183 phosphorylated on S170 (TVVRRRGRSPRRRTPSPRRRRSQ[pS]PRRRRSQSRESQC; UniProt P03147 147-183, looked up, fragment) | 37.4 |  | 32 µM |  | ~149.5 |  | ~149.5 |  | ~149.5 |  | ~149.5 | ~149.5 | ~149.5 | 8 | ~32 | ~32 | ~32 | ~32 | ~32 | ~32 | 
5 | HBc176p: HBc147-183 phosphorylated on S176 (TVVRRRGRSPRRRTPSPRRRRSQSPRRRR[pS]QSRESQC; UniProt P03147 147-183, looked up, fragment) | 18.68 |  | 8 µM |  | 37.4 |  | 37.4 |  | 37.4 |  | 37.4 | 37.4 | 37.4 | 4 | 8 | 8 | 8 | 8 | 8 | 8 | 
